For the series the following is noted: for mass density: 100 kPa, Vibrating tube method; for mass density / electrical conductivity: Liquid; for electrical conductivity: 101.33 kPa, Direct current cell with electrodes; for Glass transition temperature: DSC.

We go through 5 compounds from the NIST ThermoML archive (doi:10.1016/j.jct.2019.07.013).

The structures appear in SMILES notation. Numbers after ± are expanded uncertainties.

For the compound `O` [water], the mass density reads like this: (283.15 K) 999.7 ± 0.05 kg/m3; (288.15 K) 999.05 ± 0.05 kg/m3; (313.15 K) 992.31 ± 0.06 kg/m3; (318.15 K) 990.42 ± 0.06 kg/m3; (323.15 K) 988.3 ± 0.06 kg/m3.
`C=CCCn1cc[n+](CCCC)c1.[Br-]` [1-(3-butenyl)-3-butylimidazolium bromide]: the Glass transition temperature is -49.00 ± 1.2 °C. Besides, the mass density (283.15 K) is 1229.25 ± 6.8 kg/m3. In addition, the mass density (288.15 K) is reported as 1225.9 ± 6.7 kg/m3. For the same compound, under “293.15 K”, the mass density came to 1222.43 ± 6.7 kg/m3 and the electrical conductivity was 0.00255 ± 0.00018 S/m. Moreover, where the note is “298.15 K”, the mass density came out at 1218.74 ± 6.7 kg/m3 and the electrical conductivity worked out at 0.00445 ± 0.00031 S/m. Further, where the note is “303.15 K”, the mass density came out at 1214.96 ± 6.7 kg/m3 and the electrical conductivity is 0.00733 ± 0.00051 S/m. Besides, where the note is “308.15 K”, the mass density is 1211.48 ± 6.7 kg/m3 and the electrical conductivity came to 0.0114 ± 0.0008 S/m. Moreover, where the note is “313.15 K”, the mass density was 1207.96 ± 6.6 kg/m3 and the electrical conductivity was 0.0175 ± 0.0012 S/m. Under “318.15 K”, the mass density was 1204.4 ± 6.6 kg/m3 and the electrical conductivity came to 0.0256 ± 0.0018 S/m. Moreover, for the setting “323.15 K”, the mass density worked out at 1200.81 ± 6.6 kg/m3 and the electrical conductivity came out at 0.0366 ± 0.0026 S/m.
`C=CCCn1cc[n+](CC)c1.[Br-]` [1-(3-butenyl)-3-ethylimidazolium bromide]: the Glass transition temperature is -63.48 ± 1.2 °C. For the same compound, the mass density (283.15 K) was determined as 1305.11 ± 5.7 kg/m3. Moreover, for the setting “288.15 K”, the mass density is 1301.34 ± 5.7 kg/m3. For the same compound, where the note is “293.15 K”, the mass density was 1297.64 ± 5.7 kg/m3 and the electrical conductivity amounted to 0.014 ± 0.00098 S/m. Where the note is “298.15 K”, the mass density was 1294.11 ± 5.6 kg/m3 and the electrical conductivity is 0.0226 ± 0.0016 S/m. For the setting “303.15 K”, the mass density was found to be 1290.54 ± 5.6 kg/m3 and the electrical conductivity came to 0.0353 ± 0.0025 S/m. Where the note is “308.15 K”, the mass density was 1286.92 ± 5.6 kg/m3 and the electrical conductivity is 0.0524 ± 0.0037 S/m. Moreover, where the note is “313.15 K”, the mass density is given as 1283.26 ± 5.6 kg/m3 and the electrical conductivity came to 0.0747 ± 0.0052 S/m. Besides, under “318.15 K”, the mass density is on record as 1279.57 ± 5.6 kg/m3 and the electrical conductivity worked out at 0.12 ± 0.0084 S/m. For the same compound, for the setting “323.15 K”, the mass density was 1275.88 ± 5.6 kg/m3 and the electrical conductivity is 0.162 ± 0.011 S/m. Besides, the Normal melting temperature (Crystal, DTA) came out at 70.68 ± 1.1 °C.
Turning to `CCCCCC[n+]1ccn(C)c1.O=S(=O)([N-]S(=O)(=O)C(F)(F)F)C(F)(F)F`, the mass density (283.15 K) is given as 1386 ± 5 kg/m3; the mass density (288.15 K) was 1381.41 ± 5 kg/m3; the mass density (293.15 K) is 1376.82 ± 5 kg/m3; the mass density (298.15 K) came to 1371.8 ± 5 kg/m3; the mass density (303.15 K) came to 1367.65 ± 5 kg/m3; the mass density (308.15 K) is on record as 1363.1 ± 5 kg/m3. Further, the mass density turned out to be 1357.5 ± 5 kg/m3 (313.15 K), 1352.61 ± 5 kg/m3 (318.15 K) and 1349.44 ± 5 kg/m3 (323.15 K).
As for `C=CCCn1cc[n+](C)c1.[Br-]` [1-(3-butenyl)-3-methylimidazolium bromide], the Glass transition temperature is -49.60 ± 1.2 °C. Moreover, under “283.15 K”, the mass density is listed as 1354.24 ± 15 kg/m3. Besides, for the setting “288.15 K”, the mass density is 1350.42 ± 15 kg/m3. For the same compound, under “293.15 K”, the mass density is given as 1346.67 ± 14 kg/m3 and the electrical conductivity amounted to 0.0126 ± 0.00089 S/m. Under “298.15 K”, the mass density came out at 1343.07 ± 14 kg/m3 and the electrical conductivity is 0.0214 ± 0.0015 S/m. Besides, for the setting “303.15 K”, the mass density worked out at 1339.41 ± 14 kg/m3 and the electrical conductivity worked out at 0.0343 ± 0.0024 S/m. Also, where the note is “308.15 K”, the mass density worked out at 1335.7 ± 14 kg/m3 and the electrical conductivity amounted to 0.0522 ± 0.0037 S/m. In addition, where the note is “313.15 K”, the mass density is reported as 1331.9 ± 14 kg/m3 and the electrical conductivity was found to be 0.0772 ± 0.0054 S/m. Also, where the note is “318.15 K”, the mass density amounted to 1328.14 ± 14 kg/m3 and the electrical conductivity is 0.116 ± 0.0081 S/m. Further, where the note is “323.15 K”, the mass density came to 1324.34 ± 14 kg/m3 and the electrical conductivity was 0.162 ± 0.011 S/m.
